Here are results for twelve molecules from US5143910A, “Piperaziniocephalosporins” (Shionogi & Co., Ltd., priority 1989, dated 1992).

The test system of data set [1] is Pseudomonas aeruginosa ATCC 25619. Briefly: MIC on agar plate by two fold dilution (Japan Society of Chemotherapy) against Pseudomonas aeruginosa ATCC 25619. Conditions: ATCC25619, P. aeruginosa ATCC 25619, in 0.01N-sodium hydrogen carbonate, read-out: minimal inhibitory concentration (MIC). Format: cell-based. From the text:
By altering the groups with the followings, the activity varied as below (AT=2-amino-4-thiazolyl).

In data set [2] the test system is Pseudomonas aeruginosa SR 24. Description: MIC against Pseudomonas aeruginosa SR 24. Format: cell-based. Particulars: SR24.
Data set [3] relates to Pseudomonas aeruginosa SR 4967. Description: ED50 against Pseudomonas aeruginosa SR 4967. It counts as in vivo. Particulars: SR4967, mouse.
Data set [4] can be described thus: safety test, intravenous injection, mouse. Format: in vivo. Conditions: dose up to 1 g/kg.
Data set [5] is described as follows: antibacterial activity against clinically isolated Clostridium freundii. It counts as cell-based.
The test system of data set [6] is Pseudomonas aeruginosa SR 24. Briefly: 50% effective dose for preventing mouse from death caused by Pseudomonas aeruginosa SR 24. Format: in vivo. On the procedure: The 50% effective dose of compound (I) where R^1 is 2-(2-amino-4-thiazolyl)-2-(1-carboxy-1-methylethoxy)imino-acetamido, R^2 is hydrogen, R^3 is methyl, R^4 R^5 is 3,4-dihydroxybenzoyl, R^6 combined with Y^- is a negative charge, X is sulfur for preventing mouse from the death caused by Pseudomonas aeruginose SR 24 is 1.25 mg/kg.

Data set [7] is described as follows: urinary and bile juice recovery after subcutaneous injection. Format: in vivo. Particulars: urine and bile, sc; during 2 hours after subcutaneous injection (20 mg/kg); read-out: urinary and bile juice recovery (total).
A further data set concerns Morgania morganii. Briefly: antibacterial activity against clinically isolated Morgania morganii. Format: cell-based.
Data set [8] in a line: safety test, intravenous injection, rabbit. Format: in vivo. Conditions: dose up to 1 g/kg.
For another data set, the system named is Enterobacter cloacae. Description: antibacterial activity against clinically isolated Enterobacter cloacae. It counts as cell-based.
Data set [9] has as its system Pseudomonas aeruginosa SR 5018. Briefly: MIC against ofloxacin resistant Pseudomonas aeruginosa SR 5018. Format: cell-based.
Data set [10] has as its system Serratia marcescens A 13880. Description: ED50 against Serratia marcescens A 13880. It counts as in vivo. Particulars: A13880, mouse.

Molecules are shown by their SMILES. Converted amounts (≈) assume the structure as drawn. Like-named read-outs stand apart in the source and are kept apart here.

As for `CO[C@@]1(NC(=O)CSC(F)F)C(=O)N2C(C(=O)[O-])=C(C[N+]3(C)CCN(C(=O)c4ccc(O)c(O)c4)CC3)CO[C@@H]21` [No. 1], in data set [1], the MIC was greater than 100 µg/mL.
On to `C[N+]1(CC2=C(C(=O)[O-])N3C(=O)[C@@H](NC(=O)Cc4ccccc4)[C@H]3SC2)CCN(C(=O)c2ccc(O)c(O)c2)CC1` [No. 2], for which the MIC in [1] is greater than 100 µg/mL.
The same measure, in the same setting: the same measure for `CO/N=C(\C(=O)N[C@@H]1C(=O)N2C(C(=O)[O-])=C(C[N+]3(C)CCN(C(=O)c4ccc(O)c(O)c4)CC3)CS[C@H]12)c1csc(N)n1` [No. 3]: 0.05 µg/mL (≈ 0.0792 µM).
On to `CO/N=C(\C(=O)N[C@@H]1C(=O)N2C(C(=O)[O-])=C(C[N+]3(C)CCN(CC(=O)c4ccc(O)c(O)c4)CC3)CS[C@H]12)c1csc(N)n1` [No. 6], for which, in data set [1], the MIC stood at 0.05 µg/mL (≈ 0.0774 µM).
For the molecule `CC(C)(O/N=C(\C(=O)N[C@@H]1C(=O)N2C(C(=O)[O-])=C(C[N+]3(C)CCN(C(=O)c4ccc(O)c(O)c4)CC3)CS[C@H]12)c1csc(N)n1)C(=O)O` [No. 8, 7β-[2-(2-amino-4-thiazolyl)-2-(1-carboxy-1-methylethoxyimino)acetamido]-3-[4-(3,4-dihydroxybenzoyl)-1-methylpiperazinio-1-yl]methyl-3-cephem-4-carboxylate], the MIC stood at 0.1 µg/mL (≈ 0.142 µM) in data set [2] and 0.05 µg/mL (≈ 0.071 µM) in data set [9] (SR5018, ofloxacin resistant Pseudomonas aeruginosa SR 5018). Also, the ED50 in data set [3] worked out at 4.91 mg/kg; in [6] (Pseudomonas aeruginosa, SR24, read-out: 50% effective dose for preventing mouse from death), 1.25 mg/kg; in data set [6] (SR24, mouse, Pseudomonas aeruginosa SR 24, read-out: ED50 (mouse)) it was 1.41 mg/kg; in [10], 0.28 mg/kg. For the same molecule, the death result in [4] and in data set [8] was “did not show death” each time. The antibacterial activity entry (in data set [5]; with Morgania morganii; with Enterobacter cloacae) was “high antibacterial activity” throughout. Further, the “times more potent (ED50) than reference 3-(3,4-dihydroxybenzyl) compound” value in data set [6] (vs 3.4 mg/kg of the reference, P. aeruginosa SR 24) worked out at 2.4 times. Also, the “times more potent (ED50) than reference 3-(dihydroxyphenylthiadiazolylthio)methyl compound” value in [6] (vs 16.3 mg/kg of the reference, P. aeruginosa SR 24) amounted to 11.6 times. Besides, the dose excreted at 2 h in [7] came to 70.4%. For the same molecule, in data set [9] (vs 0.4 γ/ml of BO-1341, P. aeruginosa SR 5018), the “times more potent (MIC) than BO-1341” value came to 8 times. Besides, the “times more potent (MIC) than E-1040” value in [9] (vs 6.3 γ/ml of E-1040, P. aeruginosa SR 5018) worked out at 126 times. In addition, the “times more potent (MIC) than ceftazidime” value in data set [9] (vs 25 γ/ml of ceftazidime, P. aeruginosa SR 5018) was 500 times.
Take `CC(C)(O/N=C(\C(=O)N[C@@H]1C(=O)N2C(C(=O)[O-])=C(C[N+]3(C)CCN(C(=O)c4ccc(O)c(O)c4Cl)CC3)CS[C@H]12)c1csc(N)n1)C(=O)O` [No. 9, 7β-[2-(2-aminothiazol-4-yl)-2-(1-carboxy-1-methylethoxyimino)acetamido]-3-[4-(2-chloro-3,4-dihydroxybenzoyl)-1-methylpiperazinio-1-yl]methyl-3-cephem-4-carboxylate]: the MIC in data set [1] was determined as 0.02 µg/mL (≈ 0.0271 µM).
Still for that read-out and setting: the result for `CC(C)(O/N=C(\C(=O)N[C@@H]1C(=O)N2C(C(=O)[O-])=C(C[N+]3(C)CCN(C(=O)c4cc(O)c(O)c(Cl)c4)CC3)CS[C@H]12)c1csc(N)n1)C(=O)O` [No. 11] reads 0.02 µg/mL (≈ 0.0271 µM); that for `CC(C)(O/N=C(\C(=O)N[C@@H]1C(=O)N2C(C(=O)[O-])=C(C[N+]3(C)CCN(C(=O)c4cc(O)c(O)cc4Cl)CC3)CS[C@H]12)c1csc(N)n1)C(=O)O` [No. 12], 0.02 µg/mL (≈ 0.0271 µM).
Still for that read-out and setting: the same measure for `CC(C)(O/N=C(\C(=O)N[C@@H]1C(=O)N2C(C(=O)[O-])=C(C[N+]3(C)CCN(C(=O)c4cc(Cl)c(O)c(O)c4Cl)CC3)CS[C@H]12)c1csc(N)n1)C(=O)O` [No. 13]: 0.02 µg/mL (≈ 0.0259 µM).
On to `COc1cc(C(=O)N2CC[N+](C)(CC3=C(C(=O)[O-])N4C(=O)[C@@H](NC(=O)C(=NOC(C)(C)C(=O)O)c5csc(N)n5)[C@H]4SC3)CC2)ccc1O` [No. 14], for which the MIC in data set [1] was determined as 3.1 µg/mL (≈ 4.32 µM).
As for `CC(C)(O/N=C(\C(=O)N[C@@H]1C(=O)N2C(C(=O)[O-])=C(C[N+]3(C)CCN(Cc4ccc(O)c(O)c4)CC3)CS[C@H]12)c1csc(N)n1)C(=O)O` [No. 15], the MIC in [1] was determined as 0.1 µg/mL (≈ 0.145 µM).
Same read-out and setting: the result for `C=C(O/N=C(\C(=O)N[C@@H]1C(=O)N2C(C(=O)[O-])=C(C[N+]3(C)CCN(C(=O)c4ccc(O)c(O)c4)CC3)CS[C@H]12)c1csc(N)n1)C(=O)O` [No. 17] reads 0.05 µg/mL (≈ 0.0727 µM).
